Test results reported in the supplement of paper PMC10307832.

Legend:
Assay in all cases: relative viability (nuclei count vs DMSO), 5 days (fraction); higher = more cells survive
HCC-78 = test system: HCC-78
How it was run: (§1)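 Lung cancer cell lines, seeded in 1536-well plates, were treated the following day by pin tool with a single drug or with five library-drug doses (not always all listed) in √10 steps on top of a fixed anchor-drug dose. Cells were fixed and nuclei stained in one step after 5 days, and nuclei were counted. Relative viability is the nuclei count for treated wells divided by that for vehicle wells, reported as medians of duplicate plates.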

LK-2 = test system: LK-2
How it was run: as §1

NCI-H1975 = test system: NCI-H1975
How it was run: as §1

BEN = test system: BEN
How it was run: as §1

NCI-H2087 = test system: NCI-H2087
How it was run: as §1

LCLC-97TM1 = test system: LCLC-97TM1
How it was run: as §1

PC-3 [JPC-3] = test system: PC-3 [JPC-3]
How it was run: as §1

NCI-H1666 = test system: NCI-H1666
How it was run: as §1

ChaGo-K-1 = test system: ChaGo-K-1
How it was run: as §1

NCI-H2342 = test system: NCI-H2342
How it was run: as §1

NCI-H1944 = test system: NCI-H1944
How it was run: as §1

NCI-H596 = test system: NCI-H596
How it was run: as §1

NCI-H1651 = test system: NCI-H1651
How it was run: as §1

LC-2-ad = test system: LC-2-ad
How it was run: as §1

NCI-H358 = test system: NCI-H358
How it was run: as §1

NCI-H1355 = test system: NCI-H1355
How it was run: as §1

NCI-H650 = test system: NCI-H650
How it was run: as §1

LU99A = test system: LU99A
How it was run: as §1

NCI-H838 = test system: NCI-H838
How it was run: as §1

LXF-289 = test system: LXF-289
How it was run: as §1

For `COc1cc2nccc(Oc3ccc(NC(=O)Nc4cc(C)on4)c(Cl)c3)c2cc1OC` [Tivozanib] + NC(=O)Nc1cc(-c2cccc(F)c2)sc1C(=O)N[C@H]1CCCNC1 [AZD7762] (partner 0.2 µM), the relative viability (HCC-78; first compound 0.005 µM) was 0.551, the relative viability (HCC-78; first compound 0.01581 µM) was 0.677 and the relative viability (HCC-78; first compound 0.05 µM) was 0.674. For the same compound, the relative viability (HCC-78; first compound 0.1581 µM) was 0.497, the relative viability (HCC-78; first compound 0.5 µM) was 0.657 and the relative viability (LK-2; first compound 0.005 µM) was 0.512. The relative viability (LK-2; first compound 0.01581 µM) was 0.278, the relative viability (LK-2; first compound 0.05 µM) was 0.494 and the relative viability (LK-2; first compound 0.1581 µM) was 0.252. For the same compound, the relative viability (LK-2; first compound 0.5 µM) was 0.357, the relative viability (NCI-H1975; first compound 0.005 µM) was 0.594 and the relative viability (NCI-H1975; first compound 0.01581 µM) was 0.742. The relative viability (NCI-H1975; first compound 0.05 µM) was 0.746, the relative viability (NCI-H1975; first compound 0.1581 µM) was 0.836 and the relative viability (NCI-H1975; first compound 0.5 µM) was 0.595. The relative viability (BEN; first compound 0.005 µM) was 0.6, the relative viability (BEN; first compound 0.01581 µM) was 0.712 and the relative viability (BEN; first compound 0.05 µM) was 0.869. The relative viability (BEN; first compound 0.1581 µM) was 0.375, the relative viability (BEN; first compound 0.5 µM) was 0.737 and the relative viability (NCI-H2087; first compound 0.005 µM) was 1.3. It also gave a relative viability (NCI-H2087; first compound 0.01581 µM) of 1.3, a relative viability (NCI-H2087; first compound 0.05 µM) of 1.28 and a relative viability (NCI-H2087; first compound 0.1581 µM) of 1.55. For the same compound, the relative viability (NCI-H2087; first compound 0.5 µM) was 1.22, the relative viability (LCLC-97TM1; first compound 0.005 µM) was 0.128 and the relative viability (LCLC-97TM1; first compound 0.01581 µM) was 0.274. It also gave a relative viability (LCLC-97TM1; first compound 0.05 µM) of 0.343, a relative viability (LCLC-97TM1; first compound 0.1581 µM) of 0.208 and a relative viability (LCLC-97TM1; first compound 0.5 µM) of 0.262. It also gave a relative viability (PC-3 [JPC-3]; first compound 0.01581 µM) of 0.857, a relative viability (PC-3 [JPC-3]; first compound 0.05 µM) of 0.927 and a relative viability (PC-3 [JPC-3]; first compound 0.1581 µM) of 0.741. It also gave a relative viability (PC-3 [JPC-3]; first compound 0.5 µM) of 0.8, a relative viability (NCI-H1666; first compound 0.005 µM) of 0.784 and a relative viability (NCI-H1666; first compound 0.01581 µM) of 0.761. For the same compound, the relative viability (NCI-H1666; first compound 0.05 µM) was 0.956, the relative viability (NCI-H1666; first compound 0.1581 µM) was 0.82 and the relative viability (NCI-H1666; first compound 0.5 µM) was 0.845. The relative viability (ChaGo-K-1; first compound 0.005 µM) was 0.847, the relative viability (ChaGo-K-1; first compound 0.01581 µM) was 0.831 and the relative viability (ChaGo-K-1; first compound 0.05 µM) was 0.901. It also gave a relative viability (ChaGo-K-1; first compound 0.1581 µM) of 0.909, a relative viability (ChaGo-K-1; first compound 0.5 µM) of 0.845 and a relative viability (NCI-H2342; first compound 0.005 µM) of 0.492. For the same compound, the relative viability (NCI-H2342; first compound 0.01581 µM) was 0.431, the relative viability (NCI-H2342; first compound 0.05 µM) was 0.609 and the relative viability (NCI-H2342; first compound 0.5 µM) was 0.414. For the same compound, the relative viability (NCI-H1944; first compound 0.005 µM) was 0.392, the relative viability (NCI-H1944; first compound 0.01581 µM) was 0.552 and the relative viability (NCI-H1944; first compound 0.05 µM) was 0.378. For the same compound, the relative viability (NCI-H1944; first compound 0.1581 µM) was 0.452, the relative viability (NCI-H1944; first compound 0.5 µM) was 0.487 and the relative viability (NCI-H596; first compound 0.005 µM) was 1.03. The relative viability (NCI-H596; first compound 0.01581 µM) was 1.1, the relative viability (NCI-H596; first compound 0.05 µM) was 1.44 and the relative viability (NCI-H596; first compound 0.5 µM) was 1.06. For the same compound, the relative viability (NCI-H1651; first compound 0.005 µM) was 0.381, the relative viability (NCI-H1651; first compound 0.01581 µM) was 0.429 and the relative viability (NCI-H1651; first compound 0.05 µM) was 0.551. The relative viability (NCI-H1651; first compound 0.1581 µM) was 0.301, the relative viability (NCI-H1651; first compound 0.5 µM) was 0.421 and the relative viability (LC-2-ad; first compound 0.005 µM) was 0.821. It also gave a relative viability (LC-2-ad; first compound 0.01581 µM) of 0.846, a relative viability (LC-2-ad; first compound 0.05 µM) of 0.856 and a relative viability (LC-2-ad; first compound 0.1581 µM) of 0.881. The relative viability (LC-2-ad; first compound 0.5 µM) was 0.815, the relative viability (NCI-H358; first compound 0.005 µM) was 0.449 and the relative viability (NCI-H358; first compound 0.01581 µM) was 0.621. The relative viability (NCI-H358; first compound 0.05 µM) was 0.552, the relative viability (NCI-H358; first compound 0.1581 µM) was 0.513 and the relative viability (NCI-H358; first compound 0.5 µM) was 0.469. For the same compound, the relative viability (NCI-H1355; first compound 0.005 µM) was 0.737, the relative viability (NCI-H1355; first compound 0.01581 µM) was 0.731 and the relative viability (NCI-H1355; first compound 0.05 µM) was 0.799. It also gave a relative viability (NCI-H1355; first compound 0.1581 µM) of 0.606, a relative viability (NCI-H1355; first compound 0.5 µM) of 0.716 and a relative viability (NCI-H650; first compound 0.005 µM) of 0.771. It also gave a relative viability (NCI-H650; first compound 0.01581 µM) of 1.08, a relative viability (NCI-H650; first compound 0.05 µM) of 0.976 and a relative viability (NCI-H650; first compound 0.1581 µM) of 0.958. The relative viability (NCI-H650; first compound 0.5 µM) was 0.683, the relative viability (LU99A; first compound 0.005 µM) was 0.337 and the relative viability (LU99A; first compound 0.01581 µM) was 0.342. For the same compound, the relative viability (LU99A; first compound 0.05 µM) was 0.34, the relative viability (LU99A; first compound 0.1581 µM) was 0.27 and the relative viability (LU99A; first compound 0.5 µM) was 0.288. The relative viability (NCI-H838; first compound 0.005 µM) was 0.918, the relative viability (NCI-H838; first compound 0.01581 µM) was 0.895 and the relative viability (NCI-H838; first compound 0.05 µM) was 0.973. It also gave a relative viability (NCI-H838; first compound 0.1581 µM) of 1.04, a relative viability (NCI-H838; first compound 0.5 µM) of 0.95 and a relative viability (LXF-289; first compound 0.005 µM) of 1.05. For the same compound, the relative viability (LXF-289; first compound 0.01581 µM) was 1.03, the relative viability (LXF-289; first compound 0.05 µM) was 1.09 and the relative viability (LXF-289; first compound 0.1581 µM) was 1.21. The relative viability (LXF-289; first compound 0.5 µM) was 1.06.
